Assay results from patent publication US20100256041A1, “Conjugate Molecule Compounds With Enhanced Cell Uptake Activity” (priority 2004, published 2010).
Where “and” joins values, the source holds several entries; their conditions need not be identical. Equal values may be shown once. Read-outs that look alike come from different tables or passages of the source. Square brackets hold non-standard residues; d marks the D form.

Legend:
[1] = tested on: SiHa (humon cervix squamous carcinoma cell line); test: cells; type: cell-based, human
Experimental: (§1) Effects of a treatment with increasing concentrations of a conjugate molecule of the invention (D-Tat-chlorambucil) on the survival of MCF-7 (human breast adenocarcinoma cell line) and SiHa (humon cervix squamous carcinoma cell line) was determined. The effects of D-Tat-chlorambucil was compared to the conjugate L-Tat-chlorambucil and to two unconjugated anti-cancer drugs (Chlorambucil and Cisplatin). Cells of each cell line (10′000 cells per well) were plated into 96 well plates (200 μtotal volume of MEM supplemented with 10% FBS, 1% L-glutamine, 1% Na-pyruvate, 1% non-essential amino acids for MCF-7 and of MEM/Earle's supplemented with 10% FBS, 1% Na-pyruvate, 1% non-essential amino acids for SiHa cells). 6 to 10 different concentrations for each test substance were tested. The control cells are non-treated. Cells were incubated at 37° C. for 24 h before treatment with the test substance. Each experiment was carried in triplicate. Cell incubation after treatment was performed for 96 hours at 37° C. The effects of the test molecules on the survival of these cell lines (in vitro cytotoxic activity) was measured by the MTT assay. 20 μl of a 5 mg/ml 0.22 μm filtered Thiazolyl Blue Tetrazolium Bromide solution (MTT, Sigma, Ref. No. 88415) in Phosphate Buffered saline (PBS, CHUV) were added to each well and the plate was incubated for 4 hours at 37° C. The supernatant was removed and formazan crystals were dissolved with DMSO (200 μl per well). Absorbancy (OD) was measured in a microplate reader at 595 nm
(§2) (Expert Plus Reader, Asys Hitech). The IC50 (concentration of the drug inhibiting 50% of the cell growth) for the test substances was calculated using Prism software.

[2] = tested on: MCF-7 (human breast adenocarcinoma cell line); test: MTT cell survival assay, 96 h treatment (Example 2, oxaliplatin conjugates); type: cell-based; settings: MCF-7 cells, Example 2, triplicate
Experimental: (§3) Effects of a treatment with increasing concentrations of a conjugate molecule of the invention (D-Tat-oxaliplatin) on the survival of MCF-7 (human breast adenocarcinoma cell line) and SiHa (human cervix squamous carcinoma cell line) was determined. The effects of D-Tat-oxaliplatin was compared to the conjugate L-Tat-oxaliplatin and to two unconjugated anti-cancer drugs (Oxaliplatin and Cisplatin). Cells of each cell line (10′000 cells per well) were plated into 96 well plates (200 μl total volume of MEM supplemented with 10% FBS, 1% L-glutamine, 1% Na-pyruvate, 1% non-essential amino acids for MCF-7 and of MEM/Earle's supplemented with 10% FBS, 1% Na-pyruvate, 1% non-essential amino acids for SiHa cells). 6 to10 different concentrations for each test substance were tested. The control cells are non-treated. Cells were incubated at 37° C. for 24 h before treatment with the test substance. Each experiment was carried in triplicate. Cell incubation after treatment was performed for 96 hours at 37° C. The effects of the test molecules on the survival of these cell lines (in vitro cytotoxic activity) was measured by the MTT assay. 20 μl of a 5 mg/ml 0.22 μm filtered Thiazolyl Blue Tetrazolium Bromide solution (MTT, Sigma, Ref. No. 88415) in Phosphate Buffered saline (PBS, CHUV) were added to each well and the plate was incubated for 4 hours at 37° C. The supernatant was removed and formazan crystals were dissolved with DMSO (200 μl per well). Absorbancy (OD) was measured in a microplate reader at 595 nm (Expert Plus Reader, Asys Hitech). The IC50 (concentration of the drug inhibiting 50% of the cell growth) for the test substances was calculated using Prism software.

[3] = tested on: SiHa (human cervix squamous carcinoma cell line); test: as above; type: cell-based; settings: SiHa cells, Example 2, triplicate
Experimental: as §3

[4] = tested on: MRC-5 (human fibroblast); test: MTT cell survival assay, 96 h treatment (Example 1); type: cell-based; settings: MRC-5 fibroblast cells
Experimental: Effects of a treatment with increasing concentrations of a conjugate molecule of the invention (Cisplatin-D-TAT) and an unconjugated anti-cancer drug (Cisplatin) on the survival of IGROV-1 (ovary), IGROV-1/CDDP (ovary, cisplatin-resistant cell line), MCF-7 (breast), and MRC-5 (human fibroblast) (three human tumor cell lines and one human fibroblast cell line) was determined. Cells of each cell line were plated out (200 μl final volume of RPMI 1640 supplemeted with 10% FBS) in 96 well plates (5 different concentrations for each test substance, one control experiment) 5,000 to 40,000 cells per well (depending on the doubling time for each cell line) were incubated at 37° C. for 24 h before treatment with the test substances. Each experiment was carried 4×. Cell incubation after treatment was performed for 96 h at 37° C. The effects of Cisplatin-D-TAT and Cisplatin on the survival of these cell lines (in vitro cytotoxic activity) were measured by using an MTT assay. 20 μl of a 5 mg/ml solution 0.22 μl filtered tetrazolium reagent (MTT, Ref. M2003, Sigma) in Phosphate Buffered Saline (PBS, Ref BE17-517Q, Cambrex) were aded in each well. […] Absorbancy (OD) was determined in each well on a single wavelength spectrophotometer plate reader at 570 nm (Multiskan, Labsystem, Helsinki, Finland) Data were collected with Genesis software (Labsystem, Helsinki, Finland). […]

[5] = tested on: MCF-7 (human breast adenocarcinoma cell line); test: cells; type: cell-based
Experimental: as §1, §2

[6] = tested on: MCF-7 (breast); test: MTT cell survival assay, 96 h treatment (Example 1); type: cell-based, human; settings: MCF-7 cells
Experimental: (§4) Effects of a treatment with increasing concentrations of a conjugate molecule of the invention (Cisplatin-D-TAT) and an unconjugated anti-cancer drug (Cisplatin) on the survival of IGROV-1 (ovary), IGROV-1/CDDP (ovary, cisplatin-resistant cell line), MCF-7 (breast), and MRC-5 (human fibroblast) (three human tumor cell lines and one human fibroblast cell line) was determined. Cells of each cell line were plated out (200 μl final volume of RPMI 1640 supplemeted with 10% FBS) in 96 well plates (5 different concentrations for each test substance, one control experiment) 5,000 to 40,000 cells per well (depending on the doubling time for each cell line) were incubated at 37° C. for 24 h before treatment with the test substances. Each experiment was carried 4×. Cell incubation after treatment was performed for 96 h at 37° C. The effects of Cisplatin-D-TAT and Cisplatin on the survival of these cell lines (in vitro cytotoxic activity) were measured by using an MTT assay. 20 μl of a 5 mg/ml solution 0.22 μl filtered tetrazolium reagent (MTT, Ref. M2003, Sigma) in Phosphate Buffered Saline (PBS, Ref BE17-517Q, Cambrex) were aded in each well. Culture plates were incubated for 4 h at 37° C. The resulting supernatant was removed and formazan crystals were dissolved with 200 μl of DMSO per well. Absorbancy (OD) was determined in each well on a single wavelength spectrophotometer plate reader at 570 nm (Multiskan, Labsystem, Helsinki, Finland) Data were collected with Genesis software (Labsystem, Helsinki, Finland). IC50 (concentration of the drug inhibiting 50% of the cell growth) for the test substances was calculated for each cell line after plotting. Control cells were treated with vehicle.

[7] = tested on: IGROV-1/CDDP (ovary, cisplatin-resistant cell line); test: as above; type: cell-based, human; settings: for IC50: IGROV-1/CDDP cisplatin-resistant cells, MTT, 96 h, mean of four measurements; for resistance index of IGROV-1/CDDP compared to parental IGROV-1 cell line: approximate; for Resistance Index of IGROV-1/CDDP versus IGROV-1 cell line: ratio of IC50 IGROV-1/CDDP to IGROV-1
Experimental: as §4

[8] = tested on: IGROV-1 (ovary); test: as above; type: cell-based, human; settings: IGROV-1 cells, mean of four measurements
Experimental: as §4

[9] = Octanol/water partition (shake-flask, HPLC at 214 nm), water solubility; settings: 1 mM, 24 hours equilibration at room temperature, FIG. 10

| Compound | IC50 [2] [µM] | IC50 [3] [µM] | IC50 [4] [µM] | IC50 [6] [µM] | IC50 [7] [µM] | resistance index of IGROV-1/CDDP compared to parental IGROV-1 cell line [7] | Resistance Index of IGROV-1/CDDP versus IGROV-1 cell line [7] | IC50 [8] [µM] | water solubility (compound partitioned in water, octanol/water) [9] | also measured |
| --- | --- | --- | --- | --- | --- | --- | --- | --- | --- | --- |
| N.N.[Cl][Pt][Cl] [Cisplatin, cis-diamindichloroplatin (II)] | 9.1 | 11.1 | 4.88 | 2.68 | 52.3 | approximately 40 fold | 43.6 | 1.2 |  | IC50 ([1]; SiHa cells, MTT, 96 h, Example 3, triplicate, read-out: IC50): 7 µM and 7.03 µM; IC50 ([5]; MCF-7 cells, MTT, 96 h, Example 3, triplicate, read-out: IC50): 7 µM and 7.96 µM |
| O=C(O)CCCc1ccc(N(CCCl)CCCl)cc1 [chlorambucil] |  |  |  |  |  |  |  |  | very low water solubility | IC50 ([1]; Homo sapiens, SiHa): > 1000 µM; IC50 ([1]; Homo sapiens, SiHa, 96 h): > 1000 µM; IC50 ([5]; Homo sapiens, MCF7): > 1000 µM; IC50 ([5]; Homo sapiens, MCF7, 96 h): > 1000 µM |
| COc1cccc2c1C(=O)c1c(O)c3c(c(O)c1C2=O)C[C@@](O)(C(=O)CO)C[C@@H]3O[C@H]1C[C@H](N)[C@H](O)[C@H](C)O1 [doxorubicine] |  |  |  |  |  |  |  |  | almost perfectly soluble in water |  |
| O=C(O)C(=O)O.[NH-][C@@H]1CCCC[C@H]1[NH-].[Pt+2] [oxaliplatin] | 1.5 | 11.1 |  |  |  |  |  |  |  |  |
| CC(C)(C)NC(=O)[C@@H]1C[C@@H]2CCCC[C@@H]2CN1C[C@@H](O)[C@H](Cc1ccccc1)NC(=O)[C@H](CC(N)=O)NC(=O)c1ccc2ccccc2n1 [saquinavir] |  |  |  |  |  |  |  |  | only partially soluble in water |  |
| Cisplatin-D-TAT (H-[dM]GG[dR][dR][dR][dQ][dR][dR][dK][dK][dR]-NH2; also: cisplatin conjugate) |  |  | 20.6 | 4.89 | 35.3 | approximately two | 1.9 | 18.4 |  |  |
